Converted amounts (≈) assume the structure as drawn.
Legend:
Staphylococcus aureus [1] = experiment: Antibacterial activity against Staphylococcus aureus ATCC 29213; type: functional
HEp-2 = experiment: Cytotoxicity against Hep2 cell line; type: functional; conditions: Homo sapiens
[2] = target: DNA topoisomerase 4 subunit A (Staphylococcus aureus, UniProt P0C1U9); experiment: Inhibitory activity against Staphylococcus aureus ATCC 29213 wild type Topo 4
Staphylococcus aureus [3] = experiment: Antibacterial activity against methicillin-resistant Staphylococcus aureus ATCC 700699; type: functional
Escherichia coli = experiment: Antibacterial activity against Escherichia coli ATCC 25922; type: functional

DNA topoisomerase 4 subunit A, sequence (P0C1U9 whole entry): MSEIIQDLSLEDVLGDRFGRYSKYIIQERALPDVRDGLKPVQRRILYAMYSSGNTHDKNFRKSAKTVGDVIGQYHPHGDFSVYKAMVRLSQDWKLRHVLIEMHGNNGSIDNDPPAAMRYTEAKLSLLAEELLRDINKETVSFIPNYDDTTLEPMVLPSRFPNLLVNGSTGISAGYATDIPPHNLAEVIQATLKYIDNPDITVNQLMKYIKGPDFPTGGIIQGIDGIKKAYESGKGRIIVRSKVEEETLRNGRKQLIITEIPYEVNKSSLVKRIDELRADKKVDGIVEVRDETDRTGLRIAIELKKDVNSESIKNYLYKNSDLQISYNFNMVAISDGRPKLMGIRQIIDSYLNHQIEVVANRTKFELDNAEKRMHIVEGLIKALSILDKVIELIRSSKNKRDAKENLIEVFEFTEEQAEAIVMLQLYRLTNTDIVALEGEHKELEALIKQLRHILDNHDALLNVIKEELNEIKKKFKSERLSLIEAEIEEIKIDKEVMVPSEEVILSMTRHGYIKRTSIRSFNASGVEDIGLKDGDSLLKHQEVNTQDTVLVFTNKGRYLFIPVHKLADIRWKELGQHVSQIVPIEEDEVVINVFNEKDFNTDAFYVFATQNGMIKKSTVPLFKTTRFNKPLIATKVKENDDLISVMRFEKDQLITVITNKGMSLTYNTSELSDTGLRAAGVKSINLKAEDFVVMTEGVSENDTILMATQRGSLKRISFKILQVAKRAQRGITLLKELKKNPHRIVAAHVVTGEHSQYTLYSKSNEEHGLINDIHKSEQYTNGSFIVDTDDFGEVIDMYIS

| SMILES | MIC (Staphylococcus aureus [1]) [µg/mL] | CC50 (HEp-2) [µM] | IC50 [2] [µM] | MIC (Staphylococcus aureus [3]) [µg/mL] | MIC (Escherichia coli) [µg/mL] |
| --- | --- | --- | --- | --- | --- |
| O=c1[nH]sc2c1c(=O)c1cc(F)c(-c3ccc4[nH]ccc4c3)cc1n2C1CC1 | 0.004 (≈ 0.0102 µM) | > 82 | > 40 | 2 (≈ 5.11 µM) | 0.059 (≈ 0.151 µM) |
| O=c1[nH]sc2c1c(=O)c1cc(F)c(-c3ccc[nH]3)cc1n2C1CC1 | 0.06 (≈ 0.176 µM) | 23 | 9.9 | 16 (≈ 46.9 µM) | 1 (≈ 2.93 µM) |
| O=c1[nH]sc2c1c(=O)c1cc(F)c(-c3ccc(-n4cccc4)nc3)cc1n2C1CC1 | 0.029 (≈ 0.0693 µM) | > 100 | 18 | 4 (≈ 9.56 µM) | 1 (≈ 2.39 µM) |
| O=c1[nH]sc2c1c(=O)c1cc(F)c(-c3cnccn3)cc1n2C1CC1 | 0.12 (≈ 0.339 µM) | > 91 | 64 | > 64 | 1 (≈ 2.82 µM) |
| O=c1[nH]sc2c1c(=O)c1cc(F)c(-c3cnc4ccccc4c3)cc1n2C1CC1 | 0.011 (≈ 0.0273 µM) | > 100 | 50 | 8 (≈ 19.8 µM) | 0.13 (≈ 0.322 µM) |
| O=c1[nH]sc2c1c(=O)c1cc(F)c(-c3cccnc3)cc1n2C1CC1 | 0.0071 (≈ 0.0201 µM) | > 100 | 0.5 | 2 (≈ 5.66 µM) | 0.0035 (≈ 0.0099 µM) |
| Cc1ncccc1-c1cc2c(cc1F)c(=O)c1c(=O)[nH]sc1n2C1CC1 | 0.13 (≈ 0.354 µM) | 12 | 3.5 | 1 (≈ 2.72 µM) | 0.51 (≈ 1.39 µM) |
| O=c1[nH]sc2c1c(=O)c1cc(F)c(-c3ccnc(F)c3)cc1n2C1CC1 | 0.0074 (≈ 0.0199 µM) | > 100 | 19 | 1 (≈ 2.69 µM) | 0.059 (≈ 0.159 µM) |
| COc1ccc(-c2cc3c(cc2F)c(=O)c2c(=O)[nH]sc2n3C2CC2)c(OC)n1 | 0.046 (≈ 0.111 µM) | 98 | 16 | 8 (≈ 19.4 µM) | 2 (≈ 4.84 µM) |
| Cc1ccnc(-c2cc3c(cc2F)c(=O)c2c(=O)[nH]sc2n3C2CC2)c1 | 0.06 (≈ 0.163 µM) | > 100 | 16 | 32 (≈ 87.1 µM) | 0.25 (≈ 0.68 µM) |
| Cc1ccc(-c2cc3c(cc2F)c(=O)c2c(=O)[nH]sc2n3C2CC2)nc1 | 0.044 (≈ 0.12 µM) | 51 | 14 | 32 (≈ 87.1 µM) | 0.12 (≈ 0.327 µM) |
| O=c1[nH]sc2c1c(=O)c1cc(F)c(-c3cc4ccccc4[nH]3)cc1n2C1CC1 | 0.06 (≈ 0.153 µM) | 9 | 3.3 | 4 (≈ 10.2 µM) | 1 (≈ 2.55 µM) |
| O=c1[nH]sc2c1c(=O)c1cc(F)c(-c3cccnc3F)cc1n2C1CC1 | 0.015 (≈ 0.0404 µM) | > 100 | 2.4 | – | 0.015 (≈ 0.0404 µM) |
| COc1ccncc1-c1cc2c(cc1F)c(=O)c1c(=O)[nH]sc1n2C1CC1 | 0.023 (≈ 0.06 µM) | 50 | 10 | 4 (≈ 10.4 µM) | 0.25 (≈ 0.652 µM) |
| O=c1[nH]sc2c1c(=O)c1cc(F)c(-c3ccc4ncccc4c3)cc1n2C1CC1 | 0.0032 (≈ 0.00793 µM) | > 100 | 3.2 | 1 (≈ 2.48 µM) | 0.13 (≈ 0.322 µM) |
| O=c1[nH]sc2c1c(=O)c1cc(F)c(-c3cncc(C4CCCN4)c3)cc1n2C1CC1 (stereo not drawn) | 0.06 (≈ 0.142 µM) | 25 | 1.1 | 8 (≈ 18.9 µM) | 0.12 (≈ 0.284 µM) |
| O=c1[nH]sc2c1c(=O)c1cc(F)c(-c3ccncc3)cc1n2C1CC1 | 0.0035 (≈ 0.0099 µM) | – | 2.2 | 1 (≈ 2.83 µM) | 0.028 (≈ 0.0792 µM) |
| COc1ncc(-c2cc3c(cc2F)c(=O)c2c(=O)[nH]sc2n3C2CC2)cn1 | 0.015 (≈ 0.039 µM) | 43 | 3.3 | 8 (≈ 20.8 µM) | 0.13 (≈ 0.338 µM) |
| O=c1[nH]sc2c1c(=O)c1cc(F)c(-c3ccc4cncnc4c3)cc1n2C1CC1 | 0.06 (≈ 0.148 µM) | > 100 | 29 | > 64 | 4 (≈ 9.89 µM) |
| COc1cncc(-c2cc3c(cc2F)c(=O)c2c(=O)[nH]sc2n3C2CC2)c1 | 0.03 (≈ 0.0782 µM) | 34 | 21 | 4 (≈ 10.4 µM) | 0.061 (≈ 0.159 µM) |

— ChEMBL document CHEMBL1138996, “Biological evaluation of isothiazoloquinolones containing aromatic heterocycles at the 7-position: In vitro activity of a series of potent antibacterial agents that are effective against methicillin-resistant Staphylococcus aureus” (Bioorg Med Chem Lett, 2006)
